# Peptide text beside a SMILES is read from it.
# Target: T1, wild-type mouse C140 receptor (Mus musculus, UniProt P55086)
# T1 construct: Native receptors were produced by cloning the coding region of the receptor gene; expressed in transfected cells; host or cells: Xenopus laevis oocytes injected with capped cRNA from pSG-5 C140
# T1 sequence (P55086 32-399 limits assumed): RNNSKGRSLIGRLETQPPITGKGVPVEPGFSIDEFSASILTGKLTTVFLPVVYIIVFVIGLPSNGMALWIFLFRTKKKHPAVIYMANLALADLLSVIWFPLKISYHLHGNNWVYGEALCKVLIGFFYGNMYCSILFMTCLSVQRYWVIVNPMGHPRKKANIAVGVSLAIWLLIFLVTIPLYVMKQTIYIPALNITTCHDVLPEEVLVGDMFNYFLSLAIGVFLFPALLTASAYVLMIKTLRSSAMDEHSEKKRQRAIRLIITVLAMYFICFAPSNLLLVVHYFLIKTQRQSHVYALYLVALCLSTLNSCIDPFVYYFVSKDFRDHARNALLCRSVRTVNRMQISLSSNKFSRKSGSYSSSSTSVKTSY
# Assay: 45Ca release by Xenopus oocytes expressing wild-type mouse C140 receptor
# Type: cell-based
# Conditions: Table 2; peptides at 100 μM; wild-type mouse C140 receptor in oocytes
# Protocol: Agonist-induced increases in ^45 Ca release by oocytes expressing cRNA encoding C140 receptor or other recombinant cells producing C140 receptor are assessed by published techniques (Williams, J. A., et al., Proc Natl Acad Sci USA (1988) 85:4939-4943). Briefly, intracellular calcium pools are labeled by incubating groups of 30 oocytes in 300 μl calcium-free modified Barth's solution (MBSH) containing 50 μCi ^45 CaCl2 (10-40 mCi/mg Ca; Amersham) for 4 hours at RT. The labeled oocytes or cells are washed, then incubated in MBSH II without antibiotics for 90 minutes. Groups of 5 oocytes are selected and placed in individual wells in a 24-well tissue culture plate (Falcon 3047) containing 0.5 ml/well MBSH II without antibiotics. This medium is removed and replaced with fresh medium every 10 minutes; the harvested medium is analyzed by scintillation counting to determine ^45 Ca released by the oocytes during each 10-minute incubation. The 10-minute incubations are continued until a stable baseline of ^45 Ca release per unit time is achieved. Two additional 10-minute collections are obtained, then test medium including agonist is added and agonist-induced ^45 Ca release determined.
# Oocytes from Xenopus laevis were harvested and prepared using published techniques (Coleman, A., in Hames, B. D., and Higgins, S. J., eds, Transcription and Translation: A Practical Approach, IRL Press, pp. 271-302; Williams, J. A., et al. Proc Natl Acad Sci USA (1988) 85:4939-4943]. To remove follicular cells, oocytes were incubated for 1.5 h with shaking in calcium-free Barth's containing 2 mg/ml each of collagenase 1A and hyaluronidase 1S. The oocytes were then washed five times in regular Barth's and incubated at 18° C. in Barth's medium containing 100 U/ml penicillin, 100 μg/ml streptomycin, and 2.5 mM sodium pyruvate. Stage V oocytes were selected and injected with 30 nl of cRNA (0.33 μg/μl water) or water alone, and then incubated with 0.25 ml of medium in groups of four/well in a 96-well culture plate. After 36 hours the oocytes were incubated with ^45 Ca (250 μCi/ml). After 12 h incubation the oocytes were washed and 0.2 ml of medium added and replaced every five minutes. The harvested medium was analyzed by scintillation counting. After five replacements to determine the baseline release of ^45 Ca, test medium with the agonist, e.g. SLIGRL (SEQ ID NO: 23), was added and the evoked ^45 Ca-release determined.
# Oocytes were injected with capped cRNA (ca 10 ng) encoding wild-type mouse C140 receptor (WT) or either of the three mutant receptors 35Pro, 35Arg and 35His. After 36 hours, cRNA-injected and control water-injected, oocytes were loaded with ^45 Ca, and 12 hours thereafter peptide or trypsin-induced ^45 Ca release were determined as described above. The peptide SLIGRL (SEQ ID NO: 23) was added at 100 μM, and trypsin at 300 pM. The stimulation with the peptide was done on the same group of oocytes after the stimulation with trypsin. The data shown in Table 1 represent the mean of three replicate determinations, and denotes the increase compared to oocytes injected with water.
# Various peptides were tested at 100 μM in the assay above using wild-type mouse C140 receptor, expressed in oocytes.
row,SMILES,Fold increase in 45Ca [fold]
1,CC[C@H](C)[C@H](NC(=O)[C@H](CC(C)C)NC(=O)[C@H](C)N)C(=O)NCC(=O)N[C@@H](CCCNC(=N)N)C(=O)N[C@@H](CC(C)C)C(=O)O [ALIGRL] (H-ALIGRL-OH),1.3
2,CC[C@H](C)[C@H](NC(=O)[C@H](C)NC(=O)[C@@H](N)CO)C(=O)NCC(=O)N[C@@H](CCCNC(=N)N)C(=O)N[C@@H](CC(C)C)C(=O)O [SAIGRL] (H-SAIGRL-OH),0
3,"CC(C)C[C@H](NC(=O)[C@H](Cc1ccccc1)NC(=O)[C@H](Cc1ccccc1)NC(=O)[C@@H](N)CO)C(=O)N[C@@H](CCCNC(=N)N)C(=O)N[C@@H](Cc1c[nH]c2ccccc12)C(=O)O [SFFLRW, reference compound] (H-SFFLRW-OH)",1.7
4,CC(C)C[C@H](NC(=O)[C@H](CCCNC(=N)N)NC(=O)CNC(=O)[C@H](C)NC(=O)[C@H](CC(C)C)NC(=O)[C@@H](N)CO)C(=O)O [SLAGRL] (H-SLAGRL-OH),0
5,CC[C@H](C)[C@H](NC(=O)[C@H](CC(C)C)NC(=O)[C@@H](N)CO)C(=O)N[C@@H](C)C(=O)N[C@@H](CCCNC(=N)N)C(=O)N[C@@H](CC(C)C)C(=O)O [SLIARL] (H-SLIARL-OH),4.3
6,CC[C@H](C)[C@H](NC(=O)[C@H](CC(C)C)NC(=O)[C@@H](N)CO)C(=O)NCC(=O)N[C@@H](C)C(=O)N[C@@H](CC(C)C)C(=O)O [SLIGAL] (H-SLIGAL-OH),0
7,CC[C@H](C)[C@H](NC(=O)[C@H](CC(C)C)NC(=O)[C@@H](N)CO)C(=O)NCC(=O)N[C@@H](CCCNC(=N)N)C(=O)N[C@@H](C)C(=O)O [SLIGRA] (H-SLIGRA-OH),8.5
